{
  "source": "patent US20220241249A1",
  "about": "“PHARMACEUTICAL COMPOSITION AND KIT CONTAINING NOVEL PENAM DERIVATIVE OR SALT THEREOF AND ONE OR MORE COMPOUNDS SELECTED FROM beta-LACTAMASE INHIBITORY COMPOUND AND ANTIBACTERIAL COMPOUND OR SALTS THEREOF” (priority 2019, published 2022)",
  "key": {"[1]": {"tested_on": "Escherichia coli TK-3113 strain producing IMP-8 (strain D)", "experiment": "MIC of test compound alone or with β-lactamase inhibitor at 4 μg/mL", "assay_type": "cell-based", "settings": "Escherichia coli", "outline": "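Broth microdilution MIC of the test compound, run alone and with a β-lactamase inhibitor fixed at 4 μg/mL. Strains were IMP-8-producing E. coli TK-3113 and other β-lactamase producers, including K. pneumoniae Y-1069 carrying OXA-48 and CTX-M-15.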"}, "[2]": {"tested_on": "Klebsiella pneumoniae Y-1133 strain producing NDM-1, OXA-48, and CTX-M-15 (strain C)", "experiment": "MIC of test compound alone or with β-lactamase inhibitor at 4 μg/mL", "assay_type": "cell-based", "settings": "Klebsiella pneumoniae", "outline": "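Broth microdilution MIC against K. pneumoniae Y-1133 (NDM-1, OXA-48, CTX-M-15), test compound alone or combined with a β-lactamase inhibitor at 4 μg/mL.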"}, "[3]": {"tested_on": "VIM-2-containing Pseudomonas aeruginosa strain (S-3779)", "experiment": "Antibacterial activity evaluation test, MIC by broth microdilution (CLSI)", "assay_type": "cell-based", "settings": "Pseudomonas aeruginosa", "outline": "(§1)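 Colonies grown overnight on Mueller Hinton agar, suspended to 0.5 McFarland and diluted 10-fold as inoculum. Incubation in cation-adjusted Mueller Hinton broth with test compound at 35° C for 16–20 h. MIC (μg/mL) is the lowest concentration with no visible growth.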"}, "[4]": {"tested_on": "CTX-M-15-containing Escherichia coli strain (TK-1747)", "experiment": "Antibacterial activity evaluation test, MIC by broth microdilution (CLSI)", "assay_type": "cell-based", "settings": "Escherichia coli", "outline": "as §1"}, "[5]": {"tested_on": "AmpC-derepressed Pseudomonas aeruginosa mutant strain (S-3028)", "experiment": "Antibacterial activity evaluation test, MIC by broth microdilution (CLSI)", "assay_type": "cell-based", "settings": "Pseudomonas aeruginosa", "outline": "as §1"}, "[6]": {"tested_on": "NDM-1-containing Klebsiella pneumoniae strain (Y-1007)", "experiment": "Antibacterial activity evaluation test, MIC by broth microdilution (CLSI)", "assay_type": "cell-based", "settings": "Klebsiella pneumoniae", "outline": "as §1"}, "[7]": {"tested_on": "Pseudomonas aeruginosa strain ATCC27853", "experiment": "Antibacterial activity evaluation test, MIC by broth microdilution (CLSI)", "assay_type": "cell-based", "settings": "Pseudomonas aeruginosa, ATCC27853", "outline": "as §1"}, "[8]": {"tested_on": "KPC-2-containing Klebsiella pneumoniae strain (Y-995)", "experiment": "Antibacterial activity evaluation test, MIC by broth microdilution (CLSI)", "assay_type": "cell-based", "settings": "Klebsiella pneumoniae", "outline": "as §1"}, "[9]": {"tested_on": "IMP-1-containing Pseudomonas aeruginosa strain (S-2838)", "experiment": "Antibacterial activity evaluation test, MIC by broth microdilution (CLSI)", "assay_type": "cell-based", "settings": "Pseudomonas aeruginosa", "outline": "as §1"}, "[10]": {"tested_on": "GES-19 and GES-20-containing Pseudomonas aeruginosa strain (S-3759)", "experiment": "Antibacterial activity evaluation test, MIC by broth microdilution (CLSI)", "assay_type": "cell-based", "settings": "Pseudomonas aeruginosa", "outline": "as §1"}, "[11]": {"tested_on": "OXA-48-containing Klebsiella pneumoniae strain (Y-1062)", "experiment": "Antibacterial activity evaluation test, MIC by broth microdilution (CLSI)", "assay_type": "cell-based", "settings": "Klebsiella pneumoniae", "outline": "as §1"}, "[12]": {"tested_on": "Escherichia coli TK-1747 strain producing CTX-M-15 (strain A)", "experiment": "MIC of test compound alone or with β-lactamase inhibitor at 4 μg/mL", "assay_type": "cell-based", "settings": "Escherichia coli", "description": "By using a broth microdilution method, the combinational effect of a test compound and a β-lactamase inhibitor was evaluated.\nThe evaluation test for antibacterial activity was performed in the same manner as in Test Example 1.\nEscherichia coli TK-1747 strain producing CTX-M-15 (hereinafter, called strain A),"}, "[13]": {"tested_on": "multidrug-resistant Pseudomonas aeruginosa strain (S-2838 strain)", "experiment": "Test for protection against systemic infection in mouse with multidrug-resistant Pseudomonas aeruginosa", "assay_type": "in vivo", "settings": "sc, 72 h, read-out: survival rate 3 days after the inoculation with bacteria", "description": "As mice, ICR male SPF mice (4 weeks old: 10 mice per group) were used. Clinically isolated multidrug-resistant Pseudomonas aeruginosa strain (S-2838 strain) cultured overnight on a Mueller-Hinton agar plate at 37° C. was cultured on a cation-adjusted Mueller Hinton medium for 5 hours, and then diluted 20-fold with a 10% mucin/phosphate buffer, thereby preparing an inoculum. An infection was induced by intraperitoneally inoculating the mice with the inoculum at 0.5 mL (about 10^6 CFU/mouse). Each test compound was dissolved in physiological saline, and 1 hour after the infection, the compound was subcutaneously administered once to the mice at 40 mg/kg. The control group was administered with the same amount of physiological saline used as a vehicle. The number of surviving mice was recorded 3 days after the infection.\nA test for protection against systemic infection in a mouse with multidrug-resistant Pseudomonas aeruginosa was performed in the same manner as in Test Example 2."}, "[14]": {"tested_on": "Klebsiella pneumoniae Y-1020 strain producing KPC-3 and SHV-12 (strain B)", "experiment": "MIC of test compound alone or with β-lactamase inhibitor at 4 μg/mL", "assay_type": "cell-based", "settings": "for MIC: Klebsiella pneumoniae, Strain B", "outline": "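Broth microdilution MIC of test compound tested alone or combined with a β-lactamase inhibitor fixed at 4 μg/mL, against the KPC-3/SHV-12-producing strain.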"}, "[15]": {"settings": "test compound alone (β-lactamase inhibitor N/A)"}},
  "data": [
    {"smiles": "CC(C)(O/N=C(\\C(=O)NC1C(=O)N2C[C@@](C(=O)O)(N3CCN(NC(=O)C(=O)c4ccc(O)c(O)c4Cl)C(=O)C3=O)S[C@H]12)c1csc(N)n1)C(=O)O", "note": "(stereo partly drawn) [Example 126, (3R,5R,6R)-6-((Z)-2-(2-aminothiazol-4-yl)-2-(((2-carboxypropan-2-yl)oxy)imino)aceta-mido)-3-(4-(2-(2-chloro-3,4-dihydroxy-phenyl)-2-oxoaceta-mido)-2,3-dioxopipera-zin-1-yl)-7-oxo-4-thia-1-azabicyclo[3.2.0]-heptane-3-carboxylic acid]", "values": [
      {"measurement": "MIC", "setting": "[1]; NAC added at 4 μg/mL", "result": 0.03, "unit": "µg/mL"},
      {"measurement": "MIC", "setting": "[1]; VAB added at 4 μg/mL", "result": 2, "unit": "µg/mL"},
      {"measurement": "MIC", "setting": "[1]; ZID added at 4 μg/mL", "result": 0.03, "unit": "µg/mL"},
      {"measurement": "MIC", "setting": "[1]; [15]", "result": 4, "unit": "µg/mL"},
      {"measurement": "MIC", "setting": "[2]; AVI added at 4 μg/mL", "result": 0.5, "unit": "µg/mL"},
      {"measurement": "MIC", "setting": "[2]; NAC added at 4 μg/mL", "result": 0.03, "unit": "µg/mL"},
      {"measurement": "MIC", "setting": "[2]; ZID added at 4 μg/mL", "result": "< 0.015", "unit": "µg/mL"},
      {"measurement": "MIC", "setting": "[2]; [15]", "result": 1, "unit": "µg/mL"},
      {"measurement": "MIC", "setting": "[3]", "result": 1, "unit": "µg/mL"},
      {"measurement": "MIC", "setting": "[4]", "result": "< 0.06", "unit": "µg/mL"},
      {"measurement": "MIC", "setting": "[5]", "result": 0.5, "unit": "µg/mL"},
      {"measurement": "MIC", "setting": "[6]", "result": "< 0.06", "unit": "µg/mL"},
      {"measurement": "MIC", "setting": "[7]", "result": 1, "unit": "µg/mL"},
      {"measurement": "MIC", "setting": "[8]", "result": 0.12, "unit": "µg/mL"},
      {"measurement": "MIC", "setting": "[9]", "result": 2, "unit": "µg/mL"},
      {"measurement": "MIC", "setting": "[10]", "result": 0.5, "unit": "µg/mL"},
      {"measurement": "MIC", "setting": "[11]", "result": 1, "unit": "µg/mL"},
      {"measurement": "MIC", "setting": "[12]; AVI added at 4 μg/mL", "result": 0.03, "unit": "µg/mL"},
      {"measurement": "MIC", "setting": "[12]; CVA added at 4 μg/mL", "result": 0.03, "unit": "µg/mL"},
      {"measurement": "MIC", "setting": "[12]; NAC added at 4 μg/mL", "result": 0.03, "unit": "µg/mL"},
      {"measurement": "MIC", "setting": "[12]; SBT added at 4 μg/mL", "result": 0.06, "unit": "µg/mL"},
      {"measurement": "MIC", "setting": "[12]; TAZ added at 4 μg/mL", "result": 0.06, "unit": "µg/mL"},
      {"measurement": "MIC", "setting": "[12]; ZID added at 4 μg/mL", "result": "< 0.015", "unit": "µg/mL"},
      {"measurement": "MIC", "setting": "[12]; [15]", "result": 0.12, "unit": "µg/mL"},
      {"measurement": "responders at 40 mg/kg", "setting": "[13]", "result": "≥ 90", "unit": "%"},
      {"measurement": "MIC", "setting": "[14]; AVI added at 4 μg/mL", "result": 1, "unit": "µg/mL"},
      {"measurement": "MIC", "setting": "[14]; NAC added at 4 μg/mL", "result": 0.12, "unit": "µg/mL"},
      {"measurement": "MIC", "setting": "[14]; ZID added at 4 μg/mL", "result": 0.03, "unit": "µg/mL"},
      {"measurement": "MIC", "setting": "[14]; [15]", "result": 4, "unit": "µg/mL"},
      {"measurement": "antibacterial activity in combination with a β-lactamase inhibitor versus without", "setting": "[14]; for all the bacterial strains (strains A to E), summary of Tables 43 to 47", "result": "higher antibacterial activity"}
    ]}
  ]
}
